From publication PMC7932521, “2-aminobenzimidazoles for leishmaniasis: From initial hit discovery to in vivo profiling” (PLoS Neglected Tropical Diseases, 2021)
Like-named read-outs stand apart in the source and are kept apart here.

Experiments:
HEPG2 cytotoxicity = type: cell-based; conditions: human, HepG2 cells; S1 Data
Text: Supplement pntd.0009196.s001.xlsx, sheet "Complete Dataset" | column: HEPG2 CC50 (uM)

Beta1 = biological target: T1, Beta1 (Homo sapiens, UniProt P08588); assay: Bioprofiling 6pt Antag Beta1 CHO; type: cell-based; conditions: antagonist readout vs Norepinephrine
T1 construct: expressed in transfected cells; host or cells: CHO
Experimental: (§1) The compounds were evaluated across a panel of 20 liability targets (37 functional assays) which included functional cell-based GPCRs and ion channels in both agonist and antagonist readout, measuring calcium flux and biochemical functional assays for nuclear hormone receptors and phosphodiesterases using TR-FRET format, in a 6 point 1:3 dilution dose series (maximum final concentration of 10 μM).

5-HT2B [1] = biological target: T2, 5-HT2B (Homo sapiens, UniProt P41595); assay: Bioprofiling 6pt Ag 5-HT2B CHO; type: cell-based; conditions: agonist readout
T2 construct: expressed in transfected cells; host or cells: CHO
Experimental: as §1

Alpha2A [2] = biological target: T3, Alpha2A (Homo sapiens, UniProt P08913); assay: Bioprofiling 6pt Antag Alpha2A CHO; type: cell-based; conditions: antagonist readout vs UK-14304
T3 construct: expressed in transfected cells; host or cells: CHO
T3 sequence (P08913 1-465): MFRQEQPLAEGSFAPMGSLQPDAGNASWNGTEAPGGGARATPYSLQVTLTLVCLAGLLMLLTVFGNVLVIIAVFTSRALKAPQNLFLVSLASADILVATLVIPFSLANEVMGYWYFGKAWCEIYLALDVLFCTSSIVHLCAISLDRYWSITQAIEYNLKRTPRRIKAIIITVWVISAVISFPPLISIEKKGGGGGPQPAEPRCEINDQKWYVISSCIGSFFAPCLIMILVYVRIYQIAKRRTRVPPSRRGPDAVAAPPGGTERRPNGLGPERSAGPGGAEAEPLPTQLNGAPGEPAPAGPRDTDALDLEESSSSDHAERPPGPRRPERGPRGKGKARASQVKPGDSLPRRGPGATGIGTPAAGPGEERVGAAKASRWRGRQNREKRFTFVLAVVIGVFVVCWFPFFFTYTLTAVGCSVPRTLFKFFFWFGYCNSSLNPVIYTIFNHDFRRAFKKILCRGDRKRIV
Experimental: as §1

Medium protein binding = type: in vitro ADME; conditions: for Media Binding: S1 Data; for Medium binding: % bound
Experimental: For plasma protein binding, pooled plasma was thawed in a water bath at 37°C and centrifuged at 4,000 rpm for 5 min to remove any clots. The pH value was measured and adjusted to 7.4, if necessary. RPMI medium (pH 7.4) supplemented with 10% fetal calf serum was used. Working solutions (400 μM) of test compounds were prepared by diluting appropriate volume of the stock solutions with DMSO. Working solutions (400 μM) were spiked into plasma to achieve 2 μM final concentrations as loading solutions. The concentration of organic solvent in the final solutions was 0.5% DMSO. The dialysis instrument was assembled following manufacturer’s instructions. Aliquots of loading solution were loaded in triplicate to the donor side of each dialysis well and dialyzed against an equal volume of dialysis buffer. The plate was shaken and incubated for 6 hours in a humidified incubator with 5% CO2 at 37°C. At the end of dialysis, aliquots of dialysate and retentate were removed into sample collection plates. Each sample was matched with an opposite blank buffer or plasma, with a ratio of matrix:dialysis buffer of 50:50 (v:v) in each well and participated with 500μL of stop solution (50% acetonitrile/methanol; internal standards—200 ng/mL tolbutamide, labetalol and 50 ng/mL metformin). All sample collection plates were rotated at 800 rpm for 5 min to mix samples and centrifuged at 20°C, 4000 rpm for 20 min. Aliquots of supernatant of all the samples were removed and injected into LC-MS/MS. Results were calculated as the percentage of remaining parent compound in plasma or medium after incubation.

PDE3A = PDE3A (Homo sapiens, UniProt Q14432); assay: Bioprofiling 6pt Antag PDE3A; type: biochemical; conditions: substrate cAMP
Experimental: as §1

5-HT2B [3] = biological target: T2, 5-HT2B; assay: Bioprofiling 6pt Antag 5-HT2B CHO; type: cell-based; conditions: antagonist readout vs Serotonin (5-HT)
Experimental: as §1

CHO = assay: Bioprofiling 6pt Ag CHO Hamster; type: cell-based; conditions: agonist readout
Experimental: as §1

Alpha2A [4] = biological target: T3, Alpha2A; assay: Bioprofiling 6pt Ag Alpha2A CHO; type: cell-based; conditions: agonist readout
Experimental: as §1

[5] = Mouse liver microsomal stability; type: in vitro ADME
Procedure, shortened: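 Test compound at 0.5 μM incubated with 0.25 mg/mL human (200-donor pool) or CD1 mouse liver microsomes, pH 7.4, 37°C, started with […]; sampled 0–30 min. LC-MS/MS quantitation against internal standard; t1/2 and Clint (μL/min/mg) from non-linear regression of % remaining versus time.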

CB1 = biological target: T4, CB1 (Homo sapiens, UniProt P21554); assay: Bioprofiling 6pt Antag CB1 CHO; type: cell-based; conditions: antagonist readout vs WIN 55,212-2
T4 construct: expressed in transfected cells; host or cells: CHO
Experimental: as §1

[6] = Parallel artificial membrane permeability assay (PAMPA); type: in vitro ADME
Procedure, shortened: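 Compounds at 10μM final in PBS pH 6.5 (donor) against PBS pH 7.4 (acceptor) across lipid-coated membranes, incubated 5 h at 37°C. Donor, acceptor and T0 levels measured by LC-MS/MS to derive effective permeability (Pe); n = 3.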

[7] = PAMPA, S1 Data, read-out: PAMPA Pe
[8] = passive permeability, read-out: PAMPA
[9] = mouse liver microsome intrinsic clearance

Sequence of PDE3A (Q14432 whole entry): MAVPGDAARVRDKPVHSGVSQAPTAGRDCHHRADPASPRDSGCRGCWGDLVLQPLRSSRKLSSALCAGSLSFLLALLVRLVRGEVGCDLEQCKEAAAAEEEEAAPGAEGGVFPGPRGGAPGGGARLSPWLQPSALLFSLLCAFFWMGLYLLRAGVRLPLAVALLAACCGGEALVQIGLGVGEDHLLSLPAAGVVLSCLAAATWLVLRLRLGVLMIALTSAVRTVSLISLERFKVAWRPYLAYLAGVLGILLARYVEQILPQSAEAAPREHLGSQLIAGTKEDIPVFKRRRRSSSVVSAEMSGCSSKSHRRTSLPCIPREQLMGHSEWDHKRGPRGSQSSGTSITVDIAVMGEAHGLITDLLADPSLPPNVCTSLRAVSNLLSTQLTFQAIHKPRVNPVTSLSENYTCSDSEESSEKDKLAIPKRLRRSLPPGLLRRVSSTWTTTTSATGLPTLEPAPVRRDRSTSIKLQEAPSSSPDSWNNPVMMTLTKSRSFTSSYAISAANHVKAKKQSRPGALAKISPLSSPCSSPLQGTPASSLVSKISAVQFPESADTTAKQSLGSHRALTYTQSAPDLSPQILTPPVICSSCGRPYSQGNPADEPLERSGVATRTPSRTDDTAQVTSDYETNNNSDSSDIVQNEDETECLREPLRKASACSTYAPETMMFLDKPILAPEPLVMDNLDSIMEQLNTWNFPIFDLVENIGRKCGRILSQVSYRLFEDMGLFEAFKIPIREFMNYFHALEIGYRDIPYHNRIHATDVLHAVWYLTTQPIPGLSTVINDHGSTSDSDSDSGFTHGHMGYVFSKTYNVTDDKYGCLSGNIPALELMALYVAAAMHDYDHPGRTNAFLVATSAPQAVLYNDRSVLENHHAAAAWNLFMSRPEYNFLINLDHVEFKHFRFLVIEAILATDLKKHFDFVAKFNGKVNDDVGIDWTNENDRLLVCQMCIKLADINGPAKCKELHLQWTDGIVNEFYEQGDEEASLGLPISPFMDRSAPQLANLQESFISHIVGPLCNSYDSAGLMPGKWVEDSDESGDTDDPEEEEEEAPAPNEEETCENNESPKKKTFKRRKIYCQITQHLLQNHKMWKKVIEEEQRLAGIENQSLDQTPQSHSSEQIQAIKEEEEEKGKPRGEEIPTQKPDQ
T1 sequence (P08588 whole entry): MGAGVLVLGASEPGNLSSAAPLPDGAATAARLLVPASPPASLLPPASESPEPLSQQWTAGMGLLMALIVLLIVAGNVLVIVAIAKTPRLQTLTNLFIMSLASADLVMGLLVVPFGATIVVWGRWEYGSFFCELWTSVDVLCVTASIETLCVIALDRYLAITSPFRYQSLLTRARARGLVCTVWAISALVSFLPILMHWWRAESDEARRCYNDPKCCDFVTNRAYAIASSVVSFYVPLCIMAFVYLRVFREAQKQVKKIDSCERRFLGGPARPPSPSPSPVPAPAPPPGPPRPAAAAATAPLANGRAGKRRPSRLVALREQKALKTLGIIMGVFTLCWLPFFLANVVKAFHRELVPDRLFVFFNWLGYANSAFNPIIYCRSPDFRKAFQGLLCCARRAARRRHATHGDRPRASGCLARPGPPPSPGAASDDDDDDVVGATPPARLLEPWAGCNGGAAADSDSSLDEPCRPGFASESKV
T4 sequence (P21554 whole entry): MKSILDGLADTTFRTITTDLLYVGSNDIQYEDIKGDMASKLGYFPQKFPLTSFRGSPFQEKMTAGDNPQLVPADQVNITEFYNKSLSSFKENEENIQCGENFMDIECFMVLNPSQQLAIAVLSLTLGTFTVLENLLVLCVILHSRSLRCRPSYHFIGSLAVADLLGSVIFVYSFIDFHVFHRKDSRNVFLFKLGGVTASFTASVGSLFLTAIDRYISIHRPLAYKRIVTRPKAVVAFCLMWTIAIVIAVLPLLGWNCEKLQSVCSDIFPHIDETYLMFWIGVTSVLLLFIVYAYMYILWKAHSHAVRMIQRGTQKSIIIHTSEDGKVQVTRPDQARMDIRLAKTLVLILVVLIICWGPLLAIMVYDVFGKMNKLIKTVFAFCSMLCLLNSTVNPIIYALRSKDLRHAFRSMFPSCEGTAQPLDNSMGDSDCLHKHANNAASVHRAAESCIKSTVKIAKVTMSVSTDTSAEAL
T2 sequence (P41595 whole entry): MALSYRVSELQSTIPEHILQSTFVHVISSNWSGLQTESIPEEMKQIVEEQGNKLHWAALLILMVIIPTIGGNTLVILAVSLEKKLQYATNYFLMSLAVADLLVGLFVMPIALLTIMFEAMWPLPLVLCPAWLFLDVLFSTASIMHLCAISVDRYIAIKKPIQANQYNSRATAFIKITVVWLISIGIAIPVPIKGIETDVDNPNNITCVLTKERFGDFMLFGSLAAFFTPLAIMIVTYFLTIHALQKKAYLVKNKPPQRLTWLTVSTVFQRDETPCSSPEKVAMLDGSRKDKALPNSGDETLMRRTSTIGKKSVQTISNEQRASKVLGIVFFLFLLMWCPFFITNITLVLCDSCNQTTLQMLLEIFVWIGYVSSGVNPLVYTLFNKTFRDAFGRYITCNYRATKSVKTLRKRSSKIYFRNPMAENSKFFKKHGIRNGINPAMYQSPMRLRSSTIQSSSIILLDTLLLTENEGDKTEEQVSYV

With `Cn1nccc1C(=O)Nc1nc2ccc(C#N)cc2n1CC(C)(C)C` [Compound 29, O=C(Nc1n(CC(C)(C)C)c(c2n1)cc(C#N)cc2)c3n(C)ncc3] the CC50 (HEPG2 cytotoxicity) was 9.08 µM, the IC50 (Beta1) was over 10 µM and the EC50 (5-HT2B [1]) was over 10 µM. The IC50 (Alpha2A [2]) was over 10 µM, the “Media Binding” value (Medium protein binding) was 57.20% and the IC50 (PDE3A) was over 10 µM. It also gave an IC50 (5-HT2B [3]) of over 10 µM, an EC50 (CHO) of over 10 µM and an EC50 (Alpha2A [4]) of over 10 µM. The microsomal CLint at 0.5 μM ([5]; CD1, mouse, liver microsomes, pH 7.4, mouse liver microsome intrinsic clearance, read-out: MLM Clint) was 17 µL/min/mg, the IC50 (CB1) was over 10 µM and the Papp at 5 h, 10 μM [6, 7] was 8.71 ×10⁻⁶ cm/s. For the same molecule, the Papp at 5 h, 10 μM [6, 8] was 4.7 ×10⁻⁶ cm/s.
In the case of `Cn1nccc1C(=O)Nc1nc2ccc(C#N)cc2n1CC(F)(F)F` [Compound 30, O=C(c1ccnn1C)Nc2nc(ccc(C#N)c3)c3n2CC(F)(F)F], the CC50 (HEPG2 cytotoxicity) is reported as 5.46 µM, the IC50 (Beta1) is reported as over 10 µM and the EC50 (5-HT2B [1]) is reported as over 10 µM. The IC50 (Alpha2A [2]) was over 10 µM, the Medium binding (Medium protein binding) was 29.2% and the “Media Binding” value (Medium protein binding) was 29.15%. The IC50 (PDE3A) was over 10 µM, the IC50 (5-HT2B [3]) was over 10 µM and the EC50 (CHO) was over 10 µM. For the same molecule, the EC50 (Alpha2A [4]) was over 10 µM, the “MLM CLint” value [5, 9] was 20 µL/min/mg and the IC50 (CB1) was over 10 µM. The Papp at 5 h, 10 μM [6, 7] was 27.9 ×10⁻⁶ cm/s and the Papp at 5 h, 10 μM [6, 8] was 7.9 ×10⁻⁶ cm/s.
With `Cn1nc(C(F)(F)F)cc1C(=O)Nc1nc2ccc(C#N)cc2n1CC(F)(F)F` [Compound 39, O=C(c1cc(C(F)(F)F)nn1C)Nc2nc(ccc(C#N)c3)c3n2CC(F)(F)F] the CC50 (HEPG2 cytotoxicity) was 1.13 µM, the IC50 (Beta1) was over 10 µM and the EC50 (5-HT2B [1]) was over 10 µM. The IC50 (Alpha2A [2]) was over 10 µM, the Medium binding (Medium protein binding) was 88.3% and the “Media Binding” value (Medium protein binding) was 88.34%. For the same molecule, the IC50 (PDE3A) was 3.32 µM, the IC50 (5-HT2B [3]) was over 10 µM and the EC50 (CHO) was over 10 µM. The EC50 (Alpha2A [4]) was over 10 µM, the “MLM CLint” value [5, 9] was 28 µL/min/mg and the IC50 (CB1) was over 10 µM. For the same molecule, the Papp at 5 h, 10 μM [6, 7] was 2.4 ×10⁻⁶ cm/s and the Papp at 5 h, 10 μM [6, 8] was 10 ×10⁻⁶ cm/s.
In the case of `COc1ccc(C(=O)Nc2nc3ccc(C#N)cc3n2CC(F)(F)F)cn1` [Compound 43, O=C(c1ccc(OC)nc1)Nc2nc(ccc(C#N)c3)c3n2CC(F)(F)F], the CC50 (HEPG2 cytotoxicity) is reported as 2.6 µM, the IC50 (Beta1) is reported as over 10 µM and the EC50 (5-HT2B [1]) is reported as over 10 µM. For the same molecule, the IC50 (Alpha2A [2]) was over 10 µM, the “Media Binding” value (Medium protein binding) was 56.74% and the IC50 (PDE3A) was over 10 µM. For the same molecule, the IC50 (5-HT2B [3]) was over 10 µM, the EC50 (CHO) was over 10 µM and the EC50 (Alpha2A [4]) was over 10 µM. For the same molecule, the “MLM CLint” value ([5]; S1 Data) was 170 µL/min/mg, the IC50 (CB1) was over 10 µM and the Papp at 5 h, 10 μM [6, 7] was 14.7 ×10⁻⁶ cm/s.
`N#Cc1ccc2nc(NC(=O)c3ccnc(C(F)(F)F)c3)n(CC(F)(F)F)c2c1` [Compound 44, O=C(c1ccnc(C(F)(F)F)c1)Nc2nc(ccc(C#N)c3)c3n2CC(F)(F)F] showed a CC50 (HEPG2 cytotoxicity) of 2.38 µM, an IC50 (Beta1) of over 10 µM and an EC50 (5-HT2B [1]) of over 10 µM. For the same molecule, the IC50 (Alpha2A [2]) was over 10 µM, the Medium binding (Medium protein binding) was 88.7% and the “Media Binding” value (Medium protein binding) was 88.65%. It also gave an IC50 (PDE3A) of 2.7 µM, an IC50 (5-HT2B [3]) of over 10 µM and an EC50 (CHO) of over 10 µM. The EC50 (Alpha2A [4]) was over 10 µM, the “MLM CLint” value [5, 9] was 27 µL/min/mg and the IC50 (CB1) was over 10 µM. For the same molecule, the Papp at 5 h, 10 μM [6, 7] was 2.32 ×10⁻⁶ cm/s and the Papp at 5 h, 10 μM [6, 8] was 2.3 ×10⁻⁶ cm/s.
Work on `N#Cc1ccc2nc(NC(=O)c3ccc(C(F)(F)F)nc3)n(CC(F)(F)F)c2c1` [Compound 45, O=C(c1ccc(C(F)(F)F)nc1)Nc2nc(ccc(C#N)c3)c3n2CC(F)(F)F] yielded a CC50 (HEPG2 cytotoxicity) of 1.12 µM, an IC50 (Beta1) of over 10 µM and an EC50 (5-HT2B [1]) of over 10 µM. The IC50 (Alpha2A [2]) was over 10 µM, the “Media Binding” value (Medium protein binding) was 83.98% and the IC50 (PDE3A) was over 10 µM. It also gave an IC50 (5-HT2B [3]) of over 10 µM, an EC50 (CHO) of over 10 µM and an EC50 (Alpha2A [4]) of over 10 µM. For the same molecule, the “MLM CLint” value ([5]; S1 Data) was 18 µL/min/mg, the IC50 (CB1) was over 10 µM and the Papp at 5 h, 10 μM [6, 7] was 5.43 ×10⁻⁶ cm/s.
